Experimental data taken from patent US20220062240A1, “METHODS OF TREATING CANCER USING A CLK INHIBITOR” (BioSplice Therapeutics, Inc., priority 2018, published 2022).
Like-named read-outs stand apart in the source and are kept apart here.

Legend:
[1] = system: HCC1599; assay: CellTiter-Glo Viability Assay, breast cancer; format: cell-based; conditions: Homo sapiens, 96 h; HCC1599, breast cancer, four days; read-out: EC50
[2] = system: MDA-MB-231-Luc; assay: CellTiter-Glo Viability Assay, breast cancer; format: cell-based; conditions: Homo sapiens, 96 h; MDA-MB-231-Luc, breast cancer, four days; read-out: EC50
[3] = system: MCF7; assay: CellTiter-Glo Viability Assay, breast cancer; format: cell-based; conditions: Homo sapiens, 96 h; MCF7, breast cancer, four days; read-out: EC50
[4] = system: BT-549; assay: CellTiter-Glo Viability Assay, breast cancer; format: cell-based; conditions: Homo sapiens, 96 h; BT-549, breast cancer, four days; read-out: EC50
[5] = system: DU4475; assay: CellTiter-Glo Viability Assay, breast cancer; format: cell-based; conditions: Homo sapiens, DU-4475, 96 h; DU4475, breast cancer, four days; read-out: EC50
[6] = system: T47D; assay: CellTiter-Glo Viability Assay, breast cancer; format: cell-based; conditions: Homo sapiens, 96 h, breast cancer, four days, read-out: EC50
[7] = system: CAMA1; assay: CellTiter-Glo Viability Assay, breast cancer; format: cell-based; conditions: Homo sapiens, CAMA-1, 96 h; CAMA1, breast cancer, four days; read-out: EC50
[8] = system: ZR-75-1; assay: CellTiter-Glo Viability Assay, breast cancer; format: cell-based; conditions: Homo sapiens, 96 h; ZR-75-1, breast cancer, four days; read-out: EC50
[9] = system: pancreatic cancer (8 cell lines); assay: CellTiter-Glo Viability Assay, pancreatic cancer; format: cell-based; conditions: Homo sapiens, inhibition of cancer cell proliferation
[10] = system: prostate cancer (5 cell lines); assay: CellTiter-Glo Viability Assay, prostate cancer; format: cell-based; conditions: Homo sapiens
[11] = system: colorectal cancer (6 cell lines); assay: CellTiter-Glo Viability Assay, colorectal cancer; format: cell-based; conditions: Homo sapiens, inhibition of cancer cell proliferation
[12] = biological target: T1, CLK2 (Homo sapiens, UniProt P49760); assay: CLK2 kinase activity assay (Z-lyte, Ser/Thr 6 peptide); format: biochemical; conditions: recombinant CLK2 kinase, ATP 60 μM; read-out: EC50
T1 construct: purchased Thermo Fisher (Life Technologies), Z'-LYTE Kinase Assay Kits
Procedure: All reactions were performed in duplicate.

[13] = system: all 50 cell lines; assay: CellTiter-Glo Viability Assay, average across all cell lines; format: cell-based; conditions: Homo sapiens; across all 50 cell lines; read-out: average EC50 for inhibition of cancer cell proliferation
Method in brief: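 4-day proliferation, 37° C/5% CO2; 300-3,000 cells/well; compound in duplicate vs DMSO controls. Panel: breast, colorectal, heme/lymphoid, liver, lung, ovarian, pancreatic, prostate lines. Read-out: CellTiter-Glo ATP luminescence, EC50 from dose-response.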

[14] = system: ovarian cancer (4 cell lines); assay: CellTiter-Glo Viability Assay, ovarian cancer; format: cell-based; conditions: Homo sapiens, inhibition of cancer cell proliferation
[15] = system: haematopoietic & lymphoid tumors (13 cell lines); assay: CellTiter-Glo Viability Assay, haematopoietic & lymphoid tumors; format: cell-based; conditions: Homo sapiens, inhibition of cancer cell proliferation
[16] = system: lung cancer (4 cell lines); assay: CellTiter-Glo Viability Assay, lung cancer; format: cell-based; conditions: Homo sapiens, inhibition of cancer cell proliferation
[17] = system: liver cancer (3 cell lines); assay: CellTiter-Glo Viability Assay, liver cancer; format: cell-based; conditions: Homo sapiens, inhibition of cancer cell proliferation
[18] = BXPC-3, BxPC3 cell line, read-out: Pancreatic cancer, EC50 BxPC3
[19] = CAPAN-1, Capan1 cell line, read-out: Pancreatic cancer, EC50 Capan1
[20] = Capan-2, Capan2 cell line, read-out: Pancreatic cancer, EC50 Capan2
[21] = MIA PaCa-2 cell line, read-out: Pancreatic cancer, EC50 MIA PaCa-2
[22] = PANC 05.04 cell line, read-out: Pancreatic cancer, EC50 PANC 05.04
[23] = PANC-1 cell line, read-out: Pancreatic cancer, EC50 PANC-1
[24] = UPAFII cell line, read-out: Pancreatic cancer, EC50 UPAFII
[25] = DU-145, read-out: Prostate cancer EC50 Du-145
[26] = PC-3, PC3 cell line, inhibition of cancer cell proliferation, read-out: Prostate cancer EC50 PC3
[27] = 22Rv1 cell line, inhibition of cancer cell proliferation, read-out: Prostate cancer EC50 22Rv1
[28] = LNCap clone FGC cell line, inhibition of cancer cell proliferation, read-out: Prostate cancer EC50 LNCap clone FGC
[29] = VCaP (Sigma) cell line, inhibition of cancer cell proliferation, read-out: Prostate cancer EC50 VCaP (Sigma)
[30] = HCT-116, HCT116 cell line, read-out: Colorectal cancer, EC50 (μM) HCT116
[31] = HT-29, HT29 cell line, read-out: Colorectal cancer, EC50 (μM) HT29
[32] = SW-620, SW620 cell line, read-out: Colorectal cancer, EC50 (μM) SW620
[33] = DLD-1 cell line, read-out: Colorectal cancer, EC50 (μM) DLD-1
[34] = SW48 cell line, read-out: Colorectal cancer, EC50 (μM) SW48
[35] = SW480 cell line, read-out: Colorectal cancer, EC50 (μM) SW480
[36] = PA-1, PA1 cell line, read-out: Ovarian cancer, EC50 (μM) PA1
[37] = TOV112D, TOV-112D cell line, read-out: Ovarian cancer, EC50 (μM) TOV-112D
[38] = OV-90 cell line, read-out: Ovarian cancer, EC50 (μM) OV-90
[39] = OVCAR-3 cell line, read-out: Ovarian cancer, EC50 (μM) OVCAR-3
[40] = DND41, DND-41 cell line, read-out: Haematopoietic & Lymphoid tumors, EC50 (μM) DND-41
[41] = MV4-11, MV-4-11 cell line, read-out: Haematopoietic & Lymphoid tumors, EC50 (μM) MV-4-11
[42] = Rec1, REC-1 cell line, read-out: Haematopoietic & Lymphoid tumors, EC50 (μM) REC-1
[43] = SU-DHL-4, SUDHL4 cell line, read-out: Haematopoietic & Lymphoid tumors, EC50 (μM) SUDHL4
[44] = HL-60 cell line, read-out: Haematopoietic & Lymphoid tumors, EC50 (μM) HL-60
[45] = JM1 cell line, read-out: Haematopoietic & Lymphoid tumors, EC50 (μM) JM1
[46] = JURKAT, Clone E6-1 cell line, read-out: Haematopoietic & Lymphoid tumors, EC50 (μM) JURKAT, Clone E6-1
[47] = JeKo-1 cell line, read-out: Haematopoietic & Lymphoid tumors, EC50 (μM) JeKo-1
[48] = KASUMI-1 cell line, read-out: Haematopoietic & Lymphoid tumors, EC50 (μM) KASUMI-1
[49] = Loucy cell line, read-out: Haematopoietic & Lymphoid tumors, EC50 (μM) Loucy
[50] = MOLT-4 cell line, read-out: Haematopoietic & Lymphoid tumors, EC50 (μM) MOLT-4
[51] = TF-1 cell line, read-out: Haematopoietic & Lymphoid tumors, EC50 (μM) TF-1
[52] = TOLEDO cell line, read-out: Haematopoietic & Lymphoid tumors, EC50 (μM) TOLEDO
[53] = A-427, A427 cell line, read-out: Lung cancer, EC50 (μM) A427
[54] = HCC78, HCC-78 cell line, read-out: Lung cancer, EC50 (μM) HCC-78
[55] = NCI-H460 cell line, read-out: Lung cancer, EC50 (μM) NCI-H460
[56] = NCI-H522 cell line, read-out: Lung cancer, EC50 (μM) NCI-H522
[57] = SNU-398, SNU398 cell line, read-out: Liver cancer, EC50 SNU398
[58] = HEPG2 cell line, read-out: Liver cancer, EC50 HEPG2
[59] = PLC/PRF/5 cell line, read-out: Liver cancer, EC50 PLC/PRF/5

T1 sequence (P49760 whole entry): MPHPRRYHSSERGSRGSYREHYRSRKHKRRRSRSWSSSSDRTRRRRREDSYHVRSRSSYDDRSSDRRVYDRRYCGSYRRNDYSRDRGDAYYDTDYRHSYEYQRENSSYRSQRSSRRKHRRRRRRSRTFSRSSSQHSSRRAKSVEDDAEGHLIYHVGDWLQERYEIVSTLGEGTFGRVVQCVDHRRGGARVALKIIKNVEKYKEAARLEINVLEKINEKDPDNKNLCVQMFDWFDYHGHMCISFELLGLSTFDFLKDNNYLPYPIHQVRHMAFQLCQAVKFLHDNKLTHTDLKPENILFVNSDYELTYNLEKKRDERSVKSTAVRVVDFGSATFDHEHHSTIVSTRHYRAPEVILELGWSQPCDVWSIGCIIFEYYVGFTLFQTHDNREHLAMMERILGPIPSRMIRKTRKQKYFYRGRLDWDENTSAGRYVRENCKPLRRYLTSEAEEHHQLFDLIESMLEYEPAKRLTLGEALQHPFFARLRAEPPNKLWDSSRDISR

Structure (SMILES): CN1CCC2(CC1)CN(c1cc(C(=O)Nc3cc4cc(-c5cnn(C)c5CO)ccc4cn3)ccn1)C2 [Compound 76]
- EC50 [1]: 673 nM
- EC50 [2]: 798 nM
- EC50 [3]: 3360 nM
- EC50 [4]: 1050 nM
- EC50 [5]: 468 nM
- EC50 [6]: 1220 nM
- EC50 [7]: 640 nM
- EC50 [8]: 950 nM
- EC50 [9, 18]: 2070 nM
- EC50 [9, 19]: 810 nM
- EC50 [9, 20]: 1190 nM
- EC50 [9, 21]: 219 nM
- EC50 [9, 22]: 1060 nM
- EC50 [9, 23]: 1660 nM
- EC50 [9, 24]: 635 nM
- EC50 [10, 25]: 941 nM
- EC50 [10, 26]: 546 nM
- EC50 [10, 27]: 397 nM
- EC50 [10, 28]: 1380 nM
- EC50 [10, 29]: 1700 nM
- EC50 [11, 30]: 0.455 µM
- EC50 [11, 31]: 1.41 µM
- EC50 [11, 32]: 0.241 µM
- EC50 [11, 33]: 1.53 µM
- EC50 [11, 34]: 0.16 µM
- EC50 [11, 35]: 0.384 µM
- EC50 [12]: 2.6 nM
- EC50 [13]: 922 nM
- EC50 [14, 36]: 0.725 µM
- EC50 [14, 37]: 0.277 µM
- EC50 [14, 38]: 1.07 µM
- EC50 [14, 39]: 0.194 µM
- EC50 [15, 40]: 0.547 µM
- EC50 [15, 41]: 0.123 µM
- EC50 [15, 42]: 1.77 µM
- EC50 [15, 43]: 0.533 µM
- EC50 [15, 44]: 1.63 µM
- EC50 [15, 45]: 0.167 µM
- EC50 [15, 46]: 1.33 µM
- EC50 [15, 47]: 0.142 µM
- EC50 [15, 48]: 0.547 µM
- EC50 [15, 49]: 0.385 µM
- EC50 [15, 50]: 0.734 µM
- EC50 [15, 51]: 2.39 µM
- EC50 [15, 52]: 0.373 µM
- EC50 [16, 53]: 0.481 µM
- EC50 [16, 54]: 1.07 µM
- EC50 [16, 55]: 2.05 µM
- EC50 [16, 56]: 0.246 µM
- EC50 [17, 57]: 120 nM
- EC50 [17, 58]: 654 nM
- EC50 [17, 59]: 2550 nM

Structure (SMILES): CN1CCC(Oc2ccc(NC(=O)c3n[nH]cc3/C=C/c3cccnc3)cn2)CC1 [Compound 93]
- EC50 [1]: 240 nM
- EC50 [2]: 6790 nM
- EC50 [3]: > 10000 nM
- EC50 [4]: 3760 nM
- EC50 [5]: 1020 nM
- EC50 [6]: 633 nM
- EC50 [7]: 7760 nM
- EC50 [8]: 6790 nM
- EC50 [9, 18]: 9040 nM
- EC50 [9, 19]: > 10000 nM
- EC50 [9, 20]: > 10000 nM
- EC50 [9, 21]: 2020 nM
- EC50 [9, 22]: > 10000 nM
- EC50 [9, 23]: > 10000 nM
- EC50 [9, 24]: 6880 nM
- EC50 [10, 25]: 9090 nM
- EC50 [10, 26]: 9340 nM
- EC50 [10, 27]: 1060 nM
- EC50 [10, 28]: 8650 nM
- EC50 [10, 29]: 2020 nM
- EC50 [11, 30]: 1.88 µM
- EC50 [11, 31]: 5.48 µM
- EC50 [11, 32]: 1.36 µM
- EC50 [11, 33]: 1.35 µM
- EC50 [11, 34]: 0.577 µM
- EC50 [11, 35]: 3.5 µM
- EC50 [12]: 3.7 nM
- EC50 [13]: 4530 nM
- EC50 [14, 36]: 5.95 µM
- EC50 [14, 37]: 1.55 µM
- EC50 [14, 38]: > 10 µM
- EC50 [14, 39]: 2.54 µM
- EC50 [15, 40]: 4.78 µM
- EC50 [15, 41]: 0.273 µM
- EC50 [15, 42]: 1.26 µM
- EC50 [15, 43]: 2.56 µM
- EC50 [15, 44]: 4.59 µM
- EC50 [15, 45]: 0.765 µM
- EC50 [15, 46]: 3.73 µM
- EC50 [15, 47]: 0.706 µM
- EC50 [15, 48]: 0.479 µM
- EC50 [15, 49]: 1.96 µM
- EC50 [15, 50]: 5.56 µM
- EC50 [15, 51]: 3.59 µM
- EC50 [15, 52]: 0.886 µM
- EC50 [16, 53]: 4.12 µM
- EC50 [16, 54]: > 10 µM
- EC50 [16, 55]: 5.17 µM
- EC50 [16, 56]: 1.42 µM
- EC50 [17, 57]: 2040 nM
- EC50 [17, 58]: 3620 nM
- EC50 [17, 59]: 9900 nM
